# Assay results as given in patent US7125889B2, “Treating of cardiovascular and related pathologies” (Medicure International Inc., priority 1999, dated 2006).
# Several values for one entry are separate records, joined by “and”; a condition that tells them apart may be missing. Identical values can stand only once.
# Tests used:
# isolated rat hearts = assay: Ischemia reperfusion in isolated rat hearts (Langendorff), left ventricular pressures; settings: for % recovery (LVDP) / LVEDP / LVSP: 30 min ischemia, 60 min reperfusion; for % recovery (LVDP) / LVEDP / LVSP / LVDP (A) / LVDP (B): P-5-P 15 μM; for LVDP (A): after ischemia (30 min ischemia, 60 min reperfusion); for LVDP (B): before ischemia
# Protocol: Male Sprague-Dawley rats weighing 250–300 g are anaesthetized with a mixture of ketamine (60 mg/kg) and xylazine (10 mg/kg).
# The left ventricular end diastolic pressure (LVEDP) is adjusted at 10 mmHg at the beginning of the experiment. […] All hearts are stabilized for a period of 30 mm and then randomly distributed into nine different experimental groups (n=5–8 per group). The experimental groups are defined as follows: • 1) Control group (control hearts are further perfused for 90 minutes for a total of […] of continuous perfusion); • 2) Ischemia reperfusion group (Ischemia reperfusion hearts are made globally ischemic by stopping the coronary flow completely for 30 mm and then the hearts are reperfused for 60 mm); • 3) P-5-P (15 μM) treated group; • 4) captopril (100 μM) treated group; • 5) verapamil (0.01 μM)) treated group; […]) treated group; […]) treated group; • 8) P-5-P+captopril treated group; • 9) P-5-P+verapamil treated group; • 10) P-5-P+propranolol treated group; • 11) P-5-P+PPADS treated group.
# Drug treatment is started 10 min before global ischemia followed by 30 min global ischemia and 60 min reperfusion. At the end of some experiments, the hearts are quickly freeze-clamped with a liquid nitrogen precooled Wollenberger tong. Rats are housed in clear cages in a temperature and humidity controlled room on a 12 hr light-dark cycle. Food and water are supplied ad libitum.
# [1] = test system: rat model of coronary ligation; assay: Coronary artery ligation (myocardial infarction), mortality; format: in vivo; settings: 21 days after coronary occlusion; once daily by gastric tube: P-5-P 10 mg/kg, captopril 100 mg/kg, propranolol 50 mg/kg, verapamil 25 mg/kg, aspirin 100 mg/kg; untreated 35%
# Excerpt: The animals were anesthetized with ether, the skin incised along the left sternal border, the fourth rib cut proximal to the sternum, and retractors inserted. The pericardial sac was perforated and the heart was exteriorized through the intercostal space. The left coronary artery was ligated about 2 mm from its origin with a 6–0 silk suture and the heart was repositioned in the chest.
# Rats are anesthetized with 1–5% isoflurane in 100% O2 (2 L flow rate). The skin is incised along the left sterna border and the 4th rib is cut proximal to the sternum and a retractor inserted. The pericardial sac is opened and the heart externalized. The left anterior descending coronary artery is ligated approximately 2 mm from its origin on the aorta using a 6–0 silk suture. The heart is then repositioned in the chest and the incision closed via purse-string sutures.
# Sham operated rats undergo identical treatment except that the artery is not ligated. […] Unless indicated in the text, the experimental animals showing infarct size >30% of the left ventricle are used in this study. All animals are allowed to recover, allowed to receive food and water ad libitum, and are maintained for a period of 21 days for Electrocardiogram (ECG), hemodynamic, and histological assessment.
# While the complete healing of the scar occurs within 3 weeks of the coronary occlusion, mild, moderate and severe stages of congestive heart failure have been reported to occur at 4, 8 and 16 weeks after ligation.
# The rats are housed in clear cages in a temperature and humidity controlled room, on a 12 hour light-dark cycle. Food and water are supplied ad libitum. After surgery, rats are randomly assigned to treatment or non-treatment in both sham and experimental groups. Randomization of animals was performed and treatment begins 1 hour after coronary occlusion and continues for 21 days. The total duration of experiments in each case is 21 days. The groups are as follows: • 1) sham operated; • 2) coronary artery ligated (treatment with equal volumes of saline); • 3) coronary artery ligated (treated with 10 mg/kg P-5-P ); • 4) coronary artery ligated (treated with 100 mg/kg captopril); • 5) coronary artery ligated (treated with 50 mg/kg propranolol); • 6) coronary artery ligated (treated with 100 mg/kg aspirin); • 7) coronary artery ligated (treated with 25 mg/kg verapamil); • 8) coronary artery ligated (treated with 10 mg/kg P-5-P+100 mg/kg captopril); • 9) coronary artery ligated (treated with 10 mg/kg P-5-P+50 mg/kg propranolol); • 10) coronary artery ligated (treated with 10 mg/kg P-5-P+100 mg/kg aspirin); • 11) coronary artery ligated (treated with 10 mg/kg P-5-P+25 mg/kg verapamil). […]
# [2] = test system: rat model of coronary ligation; assay: Hemodynamic changes, heart and scar weight after coronary artery ligation; format: in vivo; settings: 21 days after coronary occlusion
# Protocol: The rats are housed in clear cages in a temperature and humidity controlled room, on a 12 hour light-dark cycle. Food and water are supplied ad libitum. After surgery, rats are randomly assigned to treatment or non-treatment in both sham and experimental groups. Randomization of animals was performed and treatment begins 1 hour after coronary occlusion and continues for 21 days. The total duration of experiments in each case is 21 days. The groups are as follows: • 1) sham operated; • 2) coronary artery ligated (treatment with equal volumes of saline); • 3) coronary artery ligated (treated with 10 mg/kg P-5-P ); • 4) coronary artery ligated (treated with 100 mg/kg captopril); • 5) coronary artery ligated (treated with 50 mg/kg propranolol); • 6) coronary artery ligated (treated with 100 mg/kg aspirin); • 7) coronary artery ligated (treated with 25 mg/kg verapamil); • 8) coronary artery ligated (treated with 10 mg/kg P-5-P+100 mg/kg captopril); • 9) coronary artery ligated (treated with 10 mg/kg P-5-P+50 mg/kg propranolol); • 10) coronary artery ligated (treated with 10 mg/kg P-5-P+100 mg/kg aspirin); • 11) coronary artery ligated (treated with 10 mg/kg P-5-P+25 mg/kg verapamil).
# P-5-P (10 mg/kg), captopril (100 mg/kg), propranolol (50 mg/kg), verapamil (25 mg/kg) and aspirin (100 mg/kg) were administered once daily by gastric tube.
# The animals are prepared and grouped as described in Example 10 and were anesthetized with a solution of ketamine/xylazine which was injected. To maintain adequate ventilation, the trachea was intubated; the right carotid artery was exposed for introducing a microtip pressure transducer (model SPR-249, Millar, Houston, Tex.) into the left ventricle. The catheter was secured with a silk ligature around the artery, and various hemodynamic parameters such as left ventricular systolic pressure (LVSP), left ventricular end diastolic pressure (LVEDP), rate of contraction (+dp/dt), rate of relaxation (−dP/dt) were recorded and calculated on a computer system using a Acknowledge 3.1 software.
# Once the hemodynamic parameters were measured the animals were sacrificed and hearts removed for measurement of heart weight, right ventricular weight, left ventricular weight and scar weight. Because complete healing of the scar in rats after coronary occlusion requires approximately 3 weeks, scar weight were measured only at 21 days.
# [3] = test system: 10% sucrose induced hypertension in rats; assay: 10% sucrose induced hypertension, systolic blood pressure (tail cuff); format: in vivo, rat
# Excerpt: Zein et al., in their publication entitled Sugar-Induced Blood Pressure Elevations Over the Lifespan of Three Substrains of Wistar Rats in Am. Coll. […] Hulman et al. in their publication entitled The Effect of Excess Dietary Sucrose on Growth, Blood Pressure, and Metabolism in Developing Sprague-Dawley Rats in Pediatr. […] Reaven et al., in their publication entitled Sugar-Induced Hypertension in Sprague-Dawley Rats in Am.
# The blood pressure is monitored using the tail cuff method. The SBP is detected on an amplifier and the Acknowledge™ computer software program is used to determine the calculations.
# The effect of concurrent administration of pyridoxal-5′-phosphate and captopril or verapamil on systolic blood pressure (marker of hypertension) in 10% sucrose induced hypertension in rats is determined.
SMILES,% recovery (LVDP) (isolated rat hearts; Captopril 100 μM),LVEDP (isolated rat hearts; Captopril 100 μM),LVSP (isolated rat hearts; Captopril 100 μM),LVDP (A) (isolated rat hearts; Captopril 100 μM),LVDP (B) (isolated rat hearts; Captopril 100 μM),mortality rate [1],% recovery (LVDP) (isolated rat hearts; PPADS 100 μM),LVEDP (isolated rat hearts; PPADS 100 μM),LVSP (isolated rat hearts; PPADS 100 μM),% recovery (LVDP) (isolated rat hearts; Propranolol 3 μM),LVEDP (isolated rat hearts; Propranolol 3 μM),LVSP (isolated rat hearts; Propranolol 3 μM),% recovery (LVDP) (isolated rat hearts; Verapamil 0.01 μM),LVEDP (isolated rat hearts; Verapamil 0.01 μM),LVSP (isolated rat hearts; Verapamil 0.01 μM),LVDP (A) (isolated rat hearts; PPADS 100 μM),LVDP (A) (isolated rat hearts; Propranolol 3 μM),LVDP (A) (isolated rat hearts; Verapamil 0.01 μM),LVDP (B) (isolated rat hearts; PPADS 100 μM),LVDP (B) (isolated rat hearts; Propranolol 3 μM),other results
"C[C@H](CS)C(=O)N1CCC[C@H]1C(=O)O [Captopril, captopril, reference compound]",61.4 ± 5.2 %,54 ± 6.7 mmHg,101 ± 14.6 mmHg,47 ± 8.6,78 ± 10.9,15%,,,,,,,,,,,,,,,"% recovery (LVDP) (isolated rat hearts; Captopril 100 μM, listed as captopril): 61.4%"
"Cc1ncc(COP(=O)(O)O)c(C=O)c1O [Example P5P, pyridoxal-5′-phosphate]",78.2 ± 3.3 %,35 ± 4.8 mmHg,98 ± 8.2 mmHg,63 ± 5,80 ± 3.8,15% and 10%,78.2 ± 3.3%,35 ± 4.8 mmHg,98 ± 8.2 mmHg,78.2 ± 3.3 %,35 ± 4.8 mmHg,98 ± 8.2 mmHg,78.2 ± 3.3 %,35 ± 4.8 mmHg,98 ± 8.2 mmHg,63 ± 5,63 ± 5,63 ± 5,80 ± 3.8,80 ± 3.8,"effect on scar weight ([2]; FIGS. 5-8): significant beneficial effect; effect on rate of contraction (+dP/dt) ([2]; FIGS. 9-12): significant beneficial effect; effect on left ventricular end diastolic pressure (LVEDP) ([2]; FIGS. 17-20): significant beneficial effect; effect on whole heart weight ([2]; FIGS. 21-24): significant beneficial effect; effect on right ventricular weight ([2]; FIGS. 25-28): significant beneficial effect; effect on systolic blood pressure ([3]; treatment 1 week prior to inducing hypertension with a sucrose diet, FIGS. 29A, 29B): significant beneficial effect; effect on systolic blood pressure ([3]; treatment the same day as inducing hypertension with a sucrose diet, FIGS. 30A, 30B): significant beneficial effect; effect on systolic blood pressure ([3]; treatment two weeks after inducing hypertension with a sucrose diet, FIGS. 31A, 31B): significant beneficial effect; % recovery (LVDP) (isolated rat hearts; Captopril 100 μM, listed as P-5-P): 78.2%; % recovery (LVDP) (isolated rat hearts; PPADS 100 μM, listed as P-5-P): 78.2%; % recovery (LVDP) (isolated rat hearts; Propranolol 3 μM, listed as P-5-P): 78.2%; % recovery (LVDP) (isolated rat hearts; Verapamil 0.01 μM, listed as P-5-P): 78.2%; LVDP (B) (isolated rat hearts; Verapamil 0.01 μM): 80 ± 3.8; benefit in ischemia reperfusion injury (isolated rat hearts; given alone, summary of Tables I-IV): significant benefit"
"Cc1nc(N=Nc2ccc(S(=O)(=O)O)cc2S(=O)(=O)O)c(COP(=O)(O)O)c(C=O)c1O [PPADS, pyridoxal phosphate-6-azophenyl-2′,4′-disulphonic acid, reference compound]",,,,,,,61% and 61 ± 4.8 %,57 ± 6.3 mmHg,115 ± 11.5 mmHg,,,,,,,58 ± 13.6,,,92 ± 15.2,,
"CC(C)NCC(O)COc1cccc2ccccc12 (stereo not drawn) [Propranolol, propranolol, reference compound]",,,,,,,,,,74 ± 4.9 %,27 ± 6.6 mmHg,72 ± 15.1 mmHg,,,,,45 ± 9.7,,,61 ± 10.8,"% recovery (LVDP) (isolated rat hearts; Propranolol 3 μM, listed as propranolol): 74%"
"COc1ccc(CCN(C)CCCC(C#N)(c2ccc(OC)c(OC)c2)C(C)C)cc1OC (stereo not drawn) [Verapamil, verapamil, reference compound]",,,,,,25%,,,,,,,43 ± 6.6%,55 ± 5.1 mmHg,78 ± 7.7 mmHg,,,23 ± 4.5,,,"% recovery (LVDP) (isolated rat hearts; Verapamil 0.01 μM, listed as verapamil): 43%; LVDP (B) (isolated rat hearts; Verapamil 0.01 μM): 54 ± 9.1"
CC(=O)Oc1ccccc1C(=O)O [aspirin],,,,,,25%,,,,,,,,,,,,,,,
